Experimental findings from the NIST ThermoML archive (doi:10.1016/j.fluid.2015.07.055) are described below.

For series [1] the following is noted: Crystal; DTA.
Series [2] in a line: Molar enthalpy of transition or fusion. Particulars: Crystal; DSC.

± gives the expanded uncertainty stated by the source.

In the case of `CCC(C)(C)C(=O)O[C@H]1C[C@@H](C)C=C2C=C[C@H](C)[C@H](CC[C@@H]3C[C@@H](O)CC(=O)O3)[C@H]21` [(+)-Simvastatin], the Normal melting temperature in series [1] stood at 142.0 ± 1.1 °C. Also, the “Molar enthalpy of transition or fusion” value in series [2] was found to be 7.2 ± 0.335 kcal/mol.
